Experimental data as given in publication PMC6372612, “Immunoglobulin G modulation of the melanocortin 4 receptor signaling in obesity and eating disorders” (Translational Psychiatry, 2019).
“Also recorded” adds a separate entry of the source. Values belong to the substance of their own block, whether it stands above or below them.

What was measured:
[1] = cited from earlier work
Description: In fact, the role of both the N- and C-terminals of α-MSH in binding to different MCR subtypes has been shown, with the C-terminal being essential for MC4R recognition. Thus hiding of the C-terminal by IgG in OB patients appears as a negative modulator of α-MSH/IgG IC activation of MC4R. […] 12–13 of the α-MSH C-terminal have also been detected in narcolept ...

human MC4R = assay: cAMP production by MC4R-expressing HEK 293 cells; assay type: cell-based; conditions: AgRP 100 nM, 45 min preincubation or co-administered; n = 2/group
Experimental: cAMP production by MC4R-expressing HEK 293 cells was measured using the bioluminescence assay cAMP-Glo^TM Max Assay Kit (Promega, Madison, WI, USA) as previously described[25]. α-MSH peptide was preincubated overnight at 4 °C before the experiment with pooled purified IgG diluted in PBS. To confirm the specificity of MC4R-dependent cAMP release, MC4R + HEK 293 cells were preincubated with the MC4R reverse agonist AgRP (100 nM, Bachem).
The cyclic adenosine monophosphate (cAMP) production by MC4-R expressing HEK 293 cells was measured using the bioluminescence assay cAMP-Glo^TM Max assay kit (Promega, Madison, WI, USA) according to the manufacturer's instructions. Briefly, cells were incubated 15 min at 23°C with different dilutions of α-MSH peptide (from 1 to 60 pmol, Bachem). Serial dilutions of cAMP standard (provided by the kit) were assayed on the same microplate. Lysis buffer and cAMP detection solution were added to each well and cells were homogenized by agitation and centrifugation during 2 min at 1000 rpm. Then, the plates were incubated for 20 min at 23°C in a dry incubator. Kinase-Glo reagent substrate was added in each well and the luminescence was read with a bioluminescence detection instrument (Safas Spectrometer, Monaco). […]

[2] = molecular target: human melanocortin 4 receptor (human) (UniProt P32245); assay: SPR; BIAcore 1000; hMC4R-expressing HEK 293 cells coated on the biosensor surface; analyte α-MSH in immune complex with IgG from obese patients; Langmuir 1:1 fit after blank subtraction
Chain of human melanocortin 4 receptor (human) (P32245 whole entry): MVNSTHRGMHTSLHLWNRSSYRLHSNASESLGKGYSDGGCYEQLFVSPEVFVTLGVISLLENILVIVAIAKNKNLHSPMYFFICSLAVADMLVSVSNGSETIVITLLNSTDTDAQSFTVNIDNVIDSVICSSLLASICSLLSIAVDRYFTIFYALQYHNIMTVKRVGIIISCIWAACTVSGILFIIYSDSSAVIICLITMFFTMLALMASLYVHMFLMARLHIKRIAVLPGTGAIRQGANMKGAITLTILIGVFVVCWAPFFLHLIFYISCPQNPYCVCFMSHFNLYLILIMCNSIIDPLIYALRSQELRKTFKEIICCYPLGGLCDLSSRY

[3] = molecular target: human melanocortin 4 receptor (human) (UniProt P32245)
male Sprague-Dawley rats = assay: Food intake in rats after intra-PVN injection of α-MSH or α-MSH/IgG IC; assay type: in vivo, rat; conditions: intra-PVN 2 µL α-MSH 2.5 mg/mL; 12-h fasted rats; vs aCSF
Experimental: Animal care and experimentation were in accordance with guidelines established by the National Institutes of Health, French and European Community regulations (Official Journal of the European Community L 358, 18/12/1986) and the study was approved by a Regional Ethical Committee (Rouen, France). Sample sizes were selected based on previous experiments. Non-randomized male Sprague-Dawley rats were anesthetized by ketamine (75 mg/kg, Virbac, Carros, France)/xylazine (5 mg/kg, Bayer, Leverkusen, France) solution (3:1 vol., 0.1 mL/100 g, intraperitoneal (IP)) and were stereotaxically implanted with a 9-mm guide cannula (PlasticsOne, Roanoke, VA, USA) into the paraventricular nucleus (PVN). Upon awakening, rats were individually maintained in metabolic cages (Techniplast, Louviers, France) for 5–6 days. […] Food intake was measured 30 min and 2 h after injection.
Animal care and experimentation were in accordance with guidelines established by the National Institutes of Health, French and European Community regulations (Official Journal of the European Community L 358, 18/12/1986). […] Food intake was measured 30 min and 2 h after injection. […]

[4] = system: control HEK 293 cells lacking MC4R; assay: cAMP production by control HEK 293 cells lacking MC4R; conditions: 15 min at 23 °C
Experimental: Stable cultured HEK 293 cell line were treated with 0.25 % trypsin-EDTA, cell pellet was re-suspended in PBS and filed in a non-culture treated white 96-microwell plate (Nunc, ≈5000 cells/10 µL/well). The cyclic adenosine monophosphate (cAMP) production by MC4-R expressing HEK 293 cells was measured using the bioluminescence assay cAMP-Glo^TM Max assay kit (Promega, Madison, WI, USA) according to the manufacturer's instructions. Briefly, cells were incubated 15 min at 23°C with different dilutions of α-MSH peptide (from 1 to 60 pmol, Bachem). Serial dilutions of cAMP standard (provided by the kit) were assayed on the same microplate. Lysis buffer and cAMP detection solution were added to each well and cells were homogenized by agitation and centrifugation during 2 min at 1000 rpm. Then, the plates were incubated for 20 min at 23°C in a dry incubator. Kinase-Glo reagent substrate was added in each well and the luminescence was read with a bioluminescence detection instrument (Safas Spectrometer, Monaco).

wild-type C57Bl/6 mice = assay: Food intake in wild-type mice after IP α-MSH; assay type: in vivo, mouse; conditions: α-MSH 100 µg/kg IP, beginning of dark phase; vs basal food intake; n = 6
Experimental: Rag^−/− mice (n = 6), bred in a specific-pathogen-free area, were generously provided by Professor Olivier Boyer and a person, Inserm 1234, Rouen. Rag^−/− and C57Bl/6 male mice were individually housed in BioDaq® cages (Research Diets Inc., New Brunswick, NJ, USA) for 7 days, and the basal food intake of each animal was measured during the first 4 h of the dark phase. At day 8, IP injections of α-MSH (100 µg/kg, Bachem) were performed at the beginning of the dark phase. Individual food intake after injection was compared to the basal food intake of the pretreatment period.
Upon arrival into the animal facility, male C57Bl/6 mice (7 weeks – n=6) purchased from Janvier Labs and Rag^-/- mice (generated by the Inserm UMR905 laboratory in a specific-pathogen-free area, n=6) were housed in standard cages (3 mice per cage) in environmental conditions (23 ± 1 °C, 12:12 h light-dark cycle) with standard pellet rodent chow and water available ad libitum. After 7 days of acclimatization, animals were individually housed in BioDaq® cages (Research Diets Inc., New Brunswick, NJ, USA) that provide automatic food intake measurements. During 7 days, the basal food intake of each animal was measured during the first 4 hours of the dark phase. At day 8, intraperitoneal injections of a-MSH (100 µg/kg, Bachem) were performed at the beginning of the dark phase. […]

Substance: adrenocorticotropic hormone [ACTH]
- functional activity when central part of ACTH is bound by IgG [1]: preserved its functional activity to stimulate cortisol secretion

Substance: agouti-related protein (SSRRCVRLHESCLGQQVPCCDPCATCYCRFFNAFCYCRKLGTAMNPCSRT; UniProt O00253 83-132, looked up) [AgRP]
- antagonism of α-MSH- and α-MSH/IgG IC-induced cAMP production (human MC4R): antagonized both α-MSH- and α-MSH/IgG IC-induced cAMP production

- fold lower affinity than in IC with IgG from controls [2]: 10 fold
- EC50 of cAMP release by hMC4R-expressing HEK 293 cells, IC formed by α-MSH and IgG from controls and ED patients, against free α-MSH [3]: 50%
Substance: α-melanocyte-stimulating hormone (peptide)

Substance: α-melanocyte-stimulating hormone [α-MSH]
- anorexigenic effect, cumulative food intake at 30 min (male Sprague-Dawley rats): significant anorexigenic effect
- anorexigenic effect, cumulative food intake at 120 min (male Sprague-Dawley rats): significant anorexigenic effect
- cAMP production by control HEK 293 cells lacking MC4R, in words [4]: no significant α-MSH-induced cAMP production; also recorded: did not observe cAMP production
- 4-h food intake in wild-type mice (wild-type C57Bl/6 mice): significantly reduced food intake
